ChEMBL document CHEMBL1135998, “Identification of orally active, potent, and selective 4-piperazinylquinazolines as antagonists of the platelet-derived growth factor receptor tyrosine kinase family” (J Med Chem, 2002)
Values belong to the compound of their own block, whether it stands above or below them.

Experiments:
in vivo [1] = experiment: in vivo
in vivo [2] = details: primates, po, 5 mg/kg
in vivo [3] = details: dog, po, 5 mg/kg
in vivo [4] = details: simiiformes, po, 5 mg/kg
in vivo [5] = details: dog, po, 5 mg/kg; remark: listed apart in the source
in vivo [6] = details: rat, po, 5 mg/kg
in vivo [7] = details: dog, po, 5 mg/kg; remark: listed apart in the source
in vivo [8] = details: simiiformes, po, 5 mg/kg; remark: listed apart in the source
in vivo [9] = details: rat, po, 5 mg/kg; remark: listed apart in the source
in vivo [10] = details: rat, po, 30 mg/kg
in vivo [11] = details: rat, plasma, po, 30 mg/kg
in vivo [12] = details: primates, po, 10 mg/kg
in vivo [13] = details: simiiformes, plasma, po, 10 mg/kg
in vivo [14] = details: simiiformes, po, 10 mg/kg
in vivo [15] = details: dog, po, 7.5 mg/kg
in vivo [16] = details: primates, po, 5 mg/kg; remark: listed apart in the source
in vivo [17] = details: rat, po, 30 mg/kg; remark: listed apart in the source
in vivo [18] = details: rat, po, 30 mg/kg; remark: listed apart in the source
in vivo [19] = details: dog, po, 7.5 mg/kg; remark: listed apart in the source
in vivo [20] = details: rat, po, 30 mg/kg; remark: listed apart in the source
in vivo [21] = details: dog, po, 7.5 mg/kg; remark: listed apart in the source

- Cmax (in vivo [1]): 49.2 ng/mL
- bioavailability (in vivo [2]): 18.9%
- bioavailability (in vivo [3]): 63.3%
- Cmax (in vivo [4]): 135 ng/mL
- AUC (in vivo [5]): 1390 ng·h/mL
- bioavailability (in vivo [6]): 20.8%
- Cmax (in vivo [7]): 183 ng/mL
- AUC (in vivo [8]): 663 ng·h/mL
- AUC (in vivo [9]): 176 ng·h/mL
SMILES: COc1cc2c(N3CCN(C(=O)Nc4ccc(OC(C)C)cc4)CC3)ncnc2cc1OCCCN1CCOCC1

- Cmax (in vivo [10]): 414 ng/mL
- bioavailability (in vivo [3]): 13.5%
- AUC (in vivo [5]): 387 ng·h/mL
- AUC (in vivo [11]): 4410 ng·h/mL
- Cmax (in vivo [7]): 43 ng/mL
- bioavailability (in vivo [12]): 38.8%
- AUC (in vivo [13]): 3080 ng·h/mL
- Cmax (in vivo [14]): 386 ng/mL
SMILES: COc1cc2c(N3CCN(C(=O)Nc4ccc(OC(C)C)cc4)CC3)ncnc2cc1OCCN1CCCCC1

- Cmax (in vivo [1]): 317 ng/mL
- bioavailability (in vivo [15]): 97.6%
- bioavailability (in vivo [16]): 48.9%
- AUC (in vivo [17]): 1700 ng·h/mL
- bioavailability (in vivo [18]): 23.8%
- AUC (in vivo [19]): 2690 ng·h/mL
- AUC (in vivo [8]): 2920 ng·h/mL
- Cmax (in vivo [20]): 256 ng/mL
- Cmax (in vivo [21]): 481 ng/mL
SMILES: COc1cc2c(N3CCN(C(=O)Nc4ccc(OC(C)C)cc4)CC3)ncnc2cc1OCCCN1CCCCC1 [TANDUTINIB]
